Results taken from US7432301B2, “Use of S-nitrosothiol signaling to treat disordered control of breathing” (University of Virginia Patent Foundation, priority 2001, dated 2008).
“Also recorded” adds a separate entry of the source. Blank lines part the entries; values can stand above or below the compound they belong to.

Key:
[1] = test system: respiratory centers of the NTS; assay: Minute ventilation (VE) by whole-body plethysmography after bilateral microinjection into the NTS of freely behaving, conscious rats; type: in vivo, rat; conditions: for effect on VE: excess amount, n=3, P=NS; for increase in VE (minute ventilation): 1 nmol injected into NTS, conscious rats; for VE change from baseline: administered at NTS, dose not given (FIG. 1C); for onset/decay characteristics of the VE response: after injection into NTS, compared with hypoxia and return to normoxia (FIGS. 1A, 1B)
Excerpt: To test the hypothesis that SNOs stimulate respiratory centers of the NTS to increase VE, the ability of endogenous SNOs to increase VE in freely behaving, conscious rats using whole-body plethysmography was examined.
(§1) A dual cannula (22G; Plastics One) was implanted close to the nucleus of the solitary tract according to standard stereotaxic coordinates (−14.0 mm bregma, 0.5 mm off midline, 7.0 mm depth; see Paxinos, G. & Watson, C. The Rat Brain in Stereotaxic Coordinates (Academic, New York, 1986), figure 74) through a hole drilled into the occipital skull of male Sprague-Dawley rats (approximately 250 g; pentobarbital anaesthesia). Placement was confirmed histologically after protocol completion. After recovery for 48 h (return to normal feeding and sleep/waking patterns), breath-by-breath ventilation was measured using the barometric method previously described (Gozal et al., J. Appl. Physiol. 81, 2068-2077 (1996)) after simultaneous, bilateral 0.1-ul injections in the freely behaving animal.

[2] = Decay of CSNO isomers in rat brainstem homogenates; type: in vitro ADME
Protocol: To test the hypothesis that SNOs stimulate respiratory centers of the NTS to increase VE, the ability of endogenous SNOs to increase VE in freely behaving, conscious rats using whole-body plethysmography was examined. […] The L- and D-isomers of CSNO decayed at identical rates in rat brainstem homogenates (26% min-1 mg -1 protein each; P=not significant (NS)).
(§2) SNOs were prepared by acid nitrosation, titrated to pH 7.4 and maintained in EDTA in the dark at −80° C. until use to prevent decomposition. SNOs were detected by reduction/chemiluminescence as previously described (Fang et al., Biochem. Biophys. Res. Commun. 252, 535-540 (1998)). Briefly, samples were injected into 100 μM CuCl, 1 mM cysteine (pH 6; 50 8C) and purged with helium (grade 5; BOC Gases). Evolved NO was measured by chemiluminescence.

[3] = test system: blood pressure or heart rate; assay: Hemodynamic effects (blood pressure, heart rate) of SNOs; type: in vivo; conditions: same species
[4] = target: T1, γ-glutamyl transpeptidase (GGT) (Rattus norvegicus, UniProt P07314); assay: Effect of GGT inhibition (acivicin pre-treatment of NTS) on ventilatory effects of SNOs and on ventilatory offset; type: in vivo; conditions: for SNO-stimulated VE increase after GGT inhibition: SNO 10 nmol microinjection after pre-treatment with acivicin 7.5 nmol (FIG. 2A)
T1 construct: from tissue; host or cells: nucleus tractus solitarius (brainstem) of living male Sprague-Dawley rats
T1 sequence (P07314 whole entry): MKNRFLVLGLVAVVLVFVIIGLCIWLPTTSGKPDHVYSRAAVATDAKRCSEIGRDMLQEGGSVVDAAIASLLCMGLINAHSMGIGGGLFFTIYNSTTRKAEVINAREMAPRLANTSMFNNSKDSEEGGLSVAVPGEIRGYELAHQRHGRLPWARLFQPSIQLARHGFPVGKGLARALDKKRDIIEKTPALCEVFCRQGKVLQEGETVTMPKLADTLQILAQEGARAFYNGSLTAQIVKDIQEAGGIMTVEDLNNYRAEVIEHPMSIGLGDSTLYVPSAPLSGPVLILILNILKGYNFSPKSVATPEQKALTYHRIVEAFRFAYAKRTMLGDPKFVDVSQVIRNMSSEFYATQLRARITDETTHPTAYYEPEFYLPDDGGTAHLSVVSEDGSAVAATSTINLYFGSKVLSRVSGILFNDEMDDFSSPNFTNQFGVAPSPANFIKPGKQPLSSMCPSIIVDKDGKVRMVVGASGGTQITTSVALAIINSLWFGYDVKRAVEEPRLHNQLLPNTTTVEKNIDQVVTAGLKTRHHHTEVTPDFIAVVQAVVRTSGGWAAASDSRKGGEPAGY
Excerpt: CGSNO (10 nmol) stimulated VE increases that were not modified by acivicin (P=NS; n=6). FIG. 2B represents the data generated from a hypoxic ventilatory response in GGT-deficient mice (+/+, wild type; +/−, heterozygotes; −/−, GGT-deficient). Lowest VE during the 30 s after cessation of hypoxia is expressed as percent change from pre-hypoxia baseline (P<0.0001; n=8 each group).
Endothelial transport and targeted neuronal biological activity of GSNO may depend, under certain circumstances, on biochemical modifications such as cleavage by GGT to form CGSNO. […] Moreover, normal ventilatory offset (that is, the gradual return to baseline of VE after recovery from hypoxia that prevents apnea) was inhibited by acivicin. […] This distinction may have pharmacological implications.
as §1

[5] = Relative stability of deoxygenated blood-derived SNOs; type: physicochemical
Protocol: Oxygenated blood drawn in an airtight syringe with GSH and EDTA (final concentrations 400 μM) by left ventricular puncture (rat) or peripherally (human) was maintained in 21% oxygen. Venous blood was reacted identically and was transferred to a hypoxia chamber under argon. Oxygen tension was measured electrochemically (Chirion). Samples underwent centrifugation (3,000 g for 5 min) followed by ultrafiltration (10K; Millipore), separation and selective ultraviolet photolysis (Jelight PS-3000-30; Laguna-Hills).
as §2

SMILES: N[C@@H](CCC(=O)N[C@@H](CS)C(=O)NCC(=O)O)C(=O)O [glutathione]
- effect on VE [1]: neither excess 8-bromocyclic GMP nor glutathione had any effect

SMILES: N[C@@H](CSN=O)C(=O)O [L-CSNO, S-nitroso-L-cysteine]
- increase in VE (minute ventilation) [1]: equivalent increases
- VE change from baseline [1]: increases in VE
- decay rate [2]: 26 % min-1 mg -1 protein

SMILES: Nc1nc2c(nc(Br)n2[C@@H]2O[C@@H]3COP(=O)(O)O[C@H]3[C@H]2O)c(=O)[nH]1 [8-bromocyclic GMP, reference compound]
- effect on VE [1]: neither excess 8-bromocyclic GMP nor glutathione had any effect

Continued, in another order:

- SNO-stimulated VE increase after GGT inhibition [4]: abolished
SMILES: N[C@@H](CCC(=O)N[C@@H](CSN=O)C(=O)NCC(=O)O)C(=O)O [GSNO, S-nitrosoglutathione]
- effects on blood pressure or heart rate (hemodynamic effects) [3]: no effects; also recorded: not reproduced
- increase in VE (minute ventilation) [1]: equivalent increases
- VE change from baseline [1]: increases in VE; also recorded: dramatically increase
- onset/decay characteristics of the VE response [1]: identical to those for recovery from hypoxia

- decay rate [2]: 26 % min-1 mg -1 protein
SMILES: N[C@H](CSN=O)C(=O)O [D-CSNO, S-nitroso-D-cysteine, reference compound]
- increase in VE (minute ventilation) [1]: no effect
- VE change from baseline [1]: without effect

- effect on GSNO-mediated increases in VE ([4]; NTS pre-treatment with the inhibitor): attenuated
- effect on normal ventilatory offset (gradual return of VE to baseline after hypoxia) ([4]; recovery from hypoxia): inhibited
SMILES: N[C@H](C(=O)O)[C@@H]1CC(Cl)=NO1 [acivicin, reference compound]

- stability relative to GSNO [5]: less stable than GSNO
SMILES: N[C@@H](CSN=O)C(=O)NCC(=O)O [CGSNO, S-Nitrosocysteinyl glycine]
- increase in VE (minute ventilation) [1]: marked increase; also recorded: equivalent increases
- VE change from baseline [1]: increases in VE
- onset/decay characteristics of the VE response [1]: identical to those observed during short exposure of the whole animal to hypoxia and return to normoxia
- SNO-stimulated VE increase after GGT inhibition [4]: not modified; also recorded: increases minute ventilation; also recorded: overcame this inhibition
